Where two headings read alike, the source gives them in different places.

What all share (format): biochemical
The target in one assay is T1, Bovine cathepsin S (Bos taurus, UniProt P25326).
T1 construct: purchased CN Biosciences
As to the kind of experiment: Cathepsin S peptidase activity assay, bovine enzyme (Ki). An outline of the steps:
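Bovine cathepsin S activity followed by fluorescence increase from substrate conversion to product over time, enzyme added to start the reaction, at 25±1° C. Buffer 10 mM bis-tris-propane pH 6.5 with 1 mM EDTA, 5 mM 2-mercaptoethanol, 1 mM CaCl2; DMSO kept below 1% (vol./vol.).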

The target in the next assay is T2, CPB2.8ΔCTE (Leishmania mexicana, UniProt P36400).
T2 construct: Wild-type recombinant CPB without the C-terminal extention (i.e. CPB2.8ΔCTE); Dr. Jeremy Mottram (Wellcome Centre for Molecular Parasitology, University of Glasgow)
T2 sequence (P36400 126-343, stated change not applied): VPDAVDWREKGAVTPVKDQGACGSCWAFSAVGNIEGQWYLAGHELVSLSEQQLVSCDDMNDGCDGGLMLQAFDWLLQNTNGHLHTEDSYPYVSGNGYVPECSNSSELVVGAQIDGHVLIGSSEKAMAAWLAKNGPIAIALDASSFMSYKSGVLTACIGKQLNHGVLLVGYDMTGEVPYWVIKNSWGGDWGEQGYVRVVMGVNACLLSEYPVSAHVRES
The experiment in a line: Leishmania mexicana cysteine protease B (CPB) peptidase activity assay (Ki). An outline of the steps:
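Recombinant CPB2.8ΔCTE (0.25 nM) was assayed in 100 mM sodium acetate pH 5.5 with 1 mM EDTA, 200 mM NaCl and 10 mM DTT at 25 °C, DMSO <1%, enzyme added to start. Rates were taken from continuous fluorescence slopes; apparent Ki was fitted assuming reversible, pure-competitive inhibition.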

A further assay concerns the target T3, human cathepsin L (Homo sapiens, UniProt P07711).
T3 construct: purchased CN Biosciences
As to the kind of experiment: Cathepsin L peptidase activity assay (Ki). The method in brief:
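Human cathepsin L at 1 nM with Ac-Phe-Arg-AMC at its KM^app (~20 μM) in 10 mM bis-tris-propane pH 6.5, 1 mM EDTA, 5 mM 2-mercaptoethanol, 1 mM CaCl2, DMSO <1%, 25±1° C. Reaction enzyme-initiated; AMC fluorescence (ex 365/em 450 nm) monitored over time.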

Setting [1] is: species of cathepsin S not given, read-out: Ki, inhibitors of cathepsin S.
The mark [2] stands for this setting: Ki, inhibitors of Leismania mexicana CPB protease.
[3] abbreviates: read-out: Ki, inhibitors of cathepsin L.
Setting [4] is: Table 5, read-out: Ki Bovine Cathepsin S.
Where [5] appears, read: Table 5, read-out: Ki Human Cathepsin L.

T1 sequence (P25326 115-331): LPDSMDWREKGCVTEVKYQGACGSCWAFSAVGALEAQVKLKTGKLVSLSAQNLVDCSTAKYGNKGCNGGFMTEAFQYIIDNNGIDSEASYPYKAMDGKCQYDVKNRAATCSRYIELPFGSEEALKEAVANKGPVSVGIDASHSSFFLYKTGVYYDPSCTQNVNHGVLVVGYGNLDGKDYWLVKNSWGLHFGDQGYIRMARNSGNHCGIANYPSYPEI
T3 sequence (P07711 114-333): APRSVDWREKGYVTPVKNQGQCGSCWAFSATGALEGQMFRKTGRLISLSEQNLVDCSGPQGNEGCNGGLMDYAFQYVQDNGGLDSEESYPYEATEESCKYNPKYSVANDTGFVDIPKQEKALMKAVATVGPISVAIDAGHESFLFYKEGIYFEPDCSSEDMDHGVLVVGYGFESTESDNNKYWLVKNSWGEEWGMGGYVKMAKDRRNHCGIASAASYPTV

For `CC(C)CC(NC(=O)c1ccc(N)cc1)C(=O)N1NC[C@@H]2[C@H]1C(=O)CN2C(=O)c1ccccc1` (stereo partly drawn) [Example 249b, (3aR,6aS)-4-amino-N-[1-(4-benzoyl-6-oxo-hexahydropyrrolo[3,2-c]pyrazole-1-carbonyl)-3-methylbutyl)benzamide], the Ki at Bovine cathepsin S (setting [1]), at CPB2.8ΔCTE (setting [2]) and at human cathepsin L (setting [3]) was less than 5 µM in each case.
Take `CC(C)(C)c1ccc(C(=O)N[C@@H](Cc2ccc(O)cc2)C(=O)N2CC[C@@H]3[C@H]2C(=O)CN3C(=O)c2ccccc2)cc1` [Example 346, (3aR,6aS)-N-[(1S)-2-(4-Benzoyl-6-oxo-hexahydro-pyrrolo[3,2-b]pyrrol-1-yl)-1-(4-hydroxybenzyl)-2-oxo-ethyl]-4-tert-butyl-benzamide]: the inhibition constant Ki (in general, a dissociation constant, usually derived from enzyme kinetics or from competition with a known ligand) was more than 10 µM on Bovine cathepsin S (setting [4]); more than 5 µM on CPB2.8ΔCTE (Ki CPB, Table 5); more than 3 µM at human cathepsin L (setting [5]); less than 5 µM on human cathepsin L (setting [3]).
For `CC(C)C[C@H](NC(=O)c1ccc(C(C)(C)C)cc1)C(=O)N1NC[C@@H]2[C@H]1C(=O)CN2C(=O)c1ccccc1` [Example 249a, (3aR,6aS)-N-[(1S)-1-(4-benzoyl-6-oxo-hexahydropyrrolo[3,2-c]pyrazole-1-carbonyl)-3-methylbutyl]-4-tert-butylbenzamide], the Ki at Bovine cathepsin S (setting [1]), on CPB2.8ΔCTE (setting [2]) and at human cathepsin L (setting [3]) was less than 5 µM each time.
As for `CC(C)C[C@H](NC(=O)c1ccc(N2CCNCC2)cc1)C(=O)N1CC[C@@H]2[C@H]1C(=O)CN2C(=O)c1ccccc1` [Example 194, (3aR,6aS)-N-[(1S)-1-(4-Benzoyl-6-oxo-hexahydro-pyrrolo[3,2-b]pyrrole-1-carbonyl)-3-methyl-butyl]-4-piperazin-1-yl-benzamide], the Ki at Bovine cathepsin S (setting [1]), on CPB2.8ΔCTE (setting [2]) and on human cathepsin L (setting [3]) was less than 5 µM throughout.
Take `O=C(N[C@@H](Cc1ccc(O)cc1)C(=O)N1CC[C@@H]2[C@H]1C(=O)CN2C(=O)c1ccccc1)c1cccc2ccccc12` [Example 296, (3aR,6aS)-Naphthalene-1-carboxylic acid [(1S)-2-(4-benzoyl-6-oxo-hexahydro-pyrrolo[3,2-b]pyrrole-1-yl)-1-(4-hydroxybenzyl)-2-oxo-ethyl]-amide]: the Ki was more than 5 µM at Bovine cathepsin S (setting [4]); more than 5 µM at CPB2.8ΔCTE (Ki CPB, Table 5); less than 0.2 µM at human cathepsin L (setting [5]).
As to `CC(C)C[C@H](NC(=O)c1ccc(-c2cccs2)cc1)C(=O)N1CC[C@@H]2[C@H]1C(=O)CN2C(=O)c1ccccc1` [Example 2, (3aR,6aS)-N-[(1S)-1-(4-Benzoyl-6-oxo-hexahydro-pyrrolo[3,2-b]pyrrole-1-carbonyl)-3-methyl-butyl]-4-thiophen-2-yl-benzamide], the Ki on Bovine cathepsin S (setting [4]) is more than 1 µM; at CPB2.8ΔCTE (Ki CPB, Table 5) it was more than 0.2 µM; on CPB2.8ΔCTE (setting [2]) it was less than 5 µM; on human cathepsin L (setting [5]), more than 3 µM.
As for `CC(C)C[C@H](NC(=O)c1cccc(N2CCNCC2)c1)C(=O)N1CC[C@@H]2[C@H]1C(=O)CN2C(=O)c1ccccc1` [Example 247, (3aR,6aS)-N-[(1S)-1-(4-Benzoyl-6-oxo-hexahydro-pyrrolo[3,2-b]pyrrole-1-carbonyl)-3-methyl-butyl]-3-piperazin-1-yl-benzamide], the Ki at Bovine cathepsin S (setting [1]), on CPB2.8ΔCTE (setting [2]) and at human cathepsin L (setting [3]) was less than 5 µM in each case.
On to `CC(=O)N[C@@H](CC(C)C)C(=O)N1CC(=O)[C@@H]2[C@H]1CCN2C(=O)[C@H](CC(C)C)NC(=O)c1ccc(N(C)C)cc1` [Example 151, (3aR,6aS)-N-{(1S)-1-[4-((2S)-2-Acetylamino-4-methyl-pentanoyl)-6-oxo-hexahydro-pyrrolo[3,2-b]pyrrole-1-carbonyl]-3-methyl-butyl}-4-dimethylamino-benzamide], for which the Ki on Bovine cathepsin S (setting [1]), at CPB2.8ΔCTE (setting [2]) and on human cathepsin L (setting [3]) was less than 5 µM in each case.
As for `CC(C)C[C@H](NC(=O)c1ccc(N)cc1)C(=O)N1NC[C@@H]2[C@H]1C(=O)CN2C(=O)c1cccc(S(C)(=O)=O)c1` [Example 249c, (3aR,6aS)-4-amino-N-{(1S)-1-[4-(3-methanesulfonylbenzoyl)-6-oxo-hexahydropyrrolo [3,2-c]pyrazole-1-carbonyl]-3-methylbutyl}benzamide], the Ki on Bovine cathepsin S (setting [1]), on CPB2.8ΔCTE (setting [2]) and on human cathepsin L (setting [3]) was less than 5 µM throughout.
In the case of `CC(C)C[C@H](NC(=O)c1ccc(OC(F)(F)F)cc1)C(=O)N1CC[C@@H]2[C@H]1C(=O)CN2C(=O)c1ccccc1` [Example 173, (3aR,6aS)-N-[(1S)-1-(4-Benzoyl-6-oxo-hexahydro-pyrrolo[3,2-b]pyrrole-1-carbonyl)-3-methyl-butyl]-4-trifluoromethoxy-benzamide], the Ki on Bovine cathepsin S (setting [1]), on CPB2.8ΔCTE (setting [2]) and on human cathepsin L (setting [3]) was less than 5 µM in each case.
For `CC(C)C[C@H](NC(=O)c1ccc(N(C)C)cc1)C(=O)N1CC[C@@H]2[C@H]1C(=O)CN2C(=O)c1ccccc1` [Example 14, (3aR,6aS)-N-[(1S)-1-(4-Benzoyl-6-oxo-hexahydro-pyrrolo[3,2-b]pyrrole-1-carbonyl)-3-methyl-butyl]-4-dimethylamino-benzamide], the Ki at Bovine cathepsin S (setting [1]), on CPB2.8ΔCTE (setting [2]) and on human cathepsin L (setting [3]) was less than 5 µM in each case.
With `CC(C)C[C@H](NC(=O)c1ccc(N(C)C)cc1)C(=O)N1CC[C@@H]2[C@H]1C(=O)CN2C(=O)[C@@H](NC(=O)OCc1ccccc1)C(C)C` [Example 158, (3aS,6aR)-((S)-1-{4-[(2S)-2-(4-Dimethylamino-benzoylamino)-4-methyl-pentanoyl]-3-oxo-hexahydro-pyrrolo[3,2-b]pyrrole-1-carbonyl}-2-methyl-propyl)-carbamic acid benzyl ester], the Ki at Bovine cathepsin S (setting [1]), on CPB2.8ΔCTE (setting [2]) and on human cathepsin L (setting [3]) was less than 5 µM each time.
Turning to `CC(C)C[C@H](NC(=O)c1ccc2c(c1)CCCN2)C(=O)N1CC[C@@H]2[C@H]1C(=O)CN2C(=O)c1ccccc1` [Example 87, (3aR,6aS)-1,2,3,4-Tetrahydro-quinoline-6-carboxylic acid [(1S)-1-(4-benzoyl-6-oxo-hexahydro-pyrrolo[3,2-b]pyrrole-1-carbonyl)-3-methyl-butyl]-amide], the Ki on Bovine cathepsin S (setting [1]), on CPB2.8ΔCTE (setting [2]) and on human cathepsin L (setting [3]) was less than 5 µM each time.
For the compound `CC(C)C[C@H](NC(=O)c1ccc(-n2cccn2)cc1)C(=O)N1CC[C@@H]2[C@H]1C(=O)CN2C(=O)c1ccccc1` [Example 91, (3aR,6aS)-N-[(1S)-1-(4-Benzoyl-6-oxo-hexahydro-pyrrolo[3,2-b]pyrrole-1-carbonyl)-3-methyl-butyl]-4-pyrazol-1-yl-benzamide], the Ki at Bovine cathepsin S (setting [1]), at CPB2.8ΔCTE (setting [2]) and on human cathepsin L (setting [3]) was less than 5 µM each time.
Turning to `CC(C)C[C@H](NC(=O)c1ccc(N(C)C)cc1)C(=O)N1CC[C@@H]2[C@H]1C(=O)CN2C(=O)c1csc2ccccc12` [Example 103, (3aR,6aS)-N-{(1S)-1-[4-(Benzo[b]thiophene-3-carbonyl)-6-oxo-hexahydro-pyrrolo[3,2-b]pyrrole-1-carbonyl]-3-methyl-butyl}-4-dimethylamino-benzamide], the Ki on Bovine cathepsin S (setting [1]), at CPB2.8ΔCTE (setting [2]) and at human cathepsin L (setting [3]) was less than 5 µM throughout.
With `CC(C)C[C@H](NC(=O)c1cccc(N(C)C)c1)C(=O)N1CC[C@@H]2[C@H]1C(=O)CN2C(=O)c1cccc(S(C)(=O)=O)c1` [Example 59, (3aR,6aS)-3-Dimethylamino-N-{(1S)-1-[4-(3-methanesulfonyl-benzoyl)-6-oxo-hexahydro-pyrrolo[3,2-b]pyrrole-1-carbonyl]-3-methyl-butyl}-benzamide], the Ki on Bovine cathepsin S (setting [1]), on CPB2.8ΔCTE (setting [2]) and on human cathepsin L (setting [3]) was less than 5 µM each time.
`O=C(N[C@@H](CC1CCCCC1)C(=O)N1CC[C@@H]2[C@H]1C(=O)CN2C(=O)c1ccccc1)c1ccsc1` [Example 250, (3aR,6aS)-Thiophene-3-carboxylic acid [(1S)-2-(4-benzoyl-6-oxo-hexahydro-pyrrolo[3,2-b]pyrrole-1-yl)-1-cyclohexylmethyl-2-oxo-ethyl]-amide]: the Ki was less than 0.1 µM at Bovine cathepsin S (setting [4]); more than 5 µM at CPB2.8ΔCTE (Ki CPB, Table 5); more than 1 µM at human cathepsin L (setting [5]); less than 5 µM at human cathepsin L (setting [3]).
In the case of `CC(C)C[C@H](NC(=O)c1cc2ccccc2s1)C(=O)N1CC[C@@H]2[C@H]1C(=O)CN2C(=O)c1ccccc1` [Example 7, (3aR,6aS)-Benzo[b]thiophene-2-carboxylic acid [(1S)-1-(4-benzoyl-6-oxo-hexahydro-pyrrolo[3,2-b]pyrrole-1-carbonyl)-3-methyl-butyl]-amide], the Ki at Bovine cathepsin S (setting [1]) and at human cathepsin L (setting [3]) was less than 5 µM throughout.
As to `CC(C)C[C@H](NC(=O)c1ccc2ncsc2c1)C(=O)N1CC[C@@H]2[C@H]1C(=O)CN2C(=O)c1ccccc1` [Example 90, (3aR,6aS)-Benzothiazole-6-carboxylic acid [(1S)-1-(4-benzoyl-6-oxo-hexahydro-pyrrolo[3,2-b]pyrrole-1-carbonyl)-3-methyl-butyl]-amide], the Ki at Bovine cathepsin S (setting [1]), at CPB2.8ΔCTE (setting [2]) and on human cathepsin L (setting [3]) was less than 5 µM throughout.

These data come from patent US20060100431A1, “Biologically active compounds” (Amura Therapeutics Limited, priority 2002, published 2006).
